Results as given in patent US7381521B2, “Anti-pathogenic composition useful in blood preservation” (Altachem Pharma Ltd., priority 2001, dated 2008).

Assays:
[1] = tested on: E. coli ATCC 11229; assay: Test 2 (DGHM), action as a function of disinfection time at 22° C., 2 × 10^9 organisms/ml; type: cell-based, Escherichia coli
Description: (§1) Another test was carried out a basis of the following solutions • 100 ml of a 0.1% solution of chlorohexidine digluconate (pH 6); and • 100 ml of a 0.1% solution of Bardac22®.
(§2) The activity of these solutions, alone or in combination, was more particularly tested in respect of Staphylococcus aureus ATCC 6538, Escherichia coli ATCC 11229 and Candida albicans ATCC 10231.
(§3) The tests were conducted in accordance with the procedure described in Chapter I/2.1 and 2.2 of Tichtlinien für die Prüfung und Bewertung chemischer Desinfektionsverfahren der DGHM/Guidelines for Testing and Evaluating Chemical Disinfection Processes of DGHM as at 1.1, 1981.

[2] = tested on: spermatozoids; assay: Spermicidal action, vitality by eosine-nigrosine, 100 spermatozoids examined; type: cell-based, human (healthy volunteers); parameters: key: living (colourless) cells counted among 100 spermatozoids examined
Description: The various samples of sperm (one drop of sperm per sample) are obtained from healthy volunteers.
One drop of sperm is treated by eosine-nigrosine. A smear is then prepared and 100 spermatozoids examined with a microscope. The dead cells are coloured red, either totally or partially. The living cells are colourless.
The substances studied were Bardac® and chlorohexidine digluconate, tested alone and in association in accordance with the invention. The various stages of the procedure are set out in Tables XV to XVII.
The maximum contact time of the various substances and of the sperm was confined to 3 minutes in order to guarantee the effectiveness of the method under the conditions of use. The concentration of the active solutions in the sperm was limited to 10% in order to reduce the risks of toxicity of the products in respect of the mucosa.

[3] = tested on: E. coli ATCC 11229; assay: Test 2 (DGHM), growth inhibition by dilutions, 72 hours at 37° C.; type: cell-based, Escherichia coli
Description: as §1, §2, §3
Tables IX, X and XI respectively illustrate the bactericidal and fungicidal activity of a 0.1% aqueous solution of chlorohexidine digluconate, a 0.1% aqueous solution of Bardac22® and a mixture of equal parts of both compounds. The procedures of which these Tables illustrate the results comprise incubation of 72 hours at 37° C. and the use of the following inactivating substances as controls: • A: 3% Tween®80+0.3% lecithin+0.1% cysteine • B: 3% Tween®80+3% saponin+0.1% cysteine+0.1% histidine; • C: 3% Tween®80+0.3% lecithin+0.1% histidine+0.5% sodium thiosulphate.
In these Tables, the sign “+” indicates an increase and the sign “−” denotes the absence of growth.

[4] = 0.00625% vol/vol, inactivator A
[5] = 0.00625% vol/vol, inactivator B
[6] = 0.00625% vol/vol, inactivator C
[7] = 0.00625% vol/vol, no inactivator
[8] = 0.0125% vol/vol, no inactivator

CCCCCCCCCC[N+](C)(C)CCCCCCCCCC.[Cl-] [Bardac ®, didecyl dimethyl ammonium chloride]
growth ([1]; 0.05% vol/vol, 1 min): + | growth ([1]; 0.05% vol/vol, 3 min): + | growth ([1]; 0.05% vol/vol, 5 min): + | growth ([1]; 0.05% vol/vol, 15 min): + | growth ([1]; 0.05% vol/vol, 30 min): + | growth ([1]; 0.05% vol/vol, 60 min): + | growth ([1]; 0.1% vol/vol, 1 min): + | growth ([1]; 0.1% vol/vol, 3 min): + | growth ([1]; 0.1% vol/vol, 5 min): + | growth ([1]; 0.1% vol/vol, 15 min): + | growth ([1]; 0.1% vol/vol, 30 min): + | growth ([1]; 0.1% vol/vol, 60 min): + | growth ([1]; 0.5% vol/vol, 1 min): + | growth ([1]; 0.5% vol/vol, 3 min): + | growth ([1]; 0.5% vol/vol, 5 min): + | growth ([1]; 0.5% vol/vol, 15 min): + | growth ([1]; 0.5% vol/vol, 30 min): + | growth ([1]; 0.5% vol/vol, 60 min): + | growth ([1]; 1% vol/vol, 1 min): + | growth ([1]; 1% vol/vol, 3 min): + | growth ([1]; 1% vol/vol, 5 min): + | growth ([1]; 1% vol/vol, 15 min): + | growth ([1]; 1% vol/vol, 30 min): + | growth ([1]; 1% vol/vol, 60 min): + | growth ([1]; 5% vol/vol, 1 min): + | growth ([1]; 5% vol/vol, 3 min): + | growth ([1]; 5% vol/vol, 5 min): + | growth ([1]; 5% vol/vol, 15 min): − | growth ([1]; 5% vol/vol, 30 min): − | growth ([1]; 5% vol/vol, 60 min): − | growth ([1]; 10% vol/vol, 1 min): + | growth ([1]; 10% vol/vol, 3 min): + | growth ([1]; 10% vol/vol, 5 min): − | growth ([1]; 10% vol/vol, 15 min): − | growth ([1]; 10% vol/vol, 30 min): − | growth ([1]; 10% vol/vol, 60 min): − | growth ([1]; 25% vol/vol, 1 min): − | growth ([1]; 25% vol/vol, 3 min): − | growth ([1]; 25% vol/vol, 5 min): − | growth ([1]; 25% vol/vol, 15 min): − | growth ([1]; 25% vol/vol, 30 min): − | growth ([1]; 25% vol/vol, 60 min): − | vitality (living spermatozoids) ([2]; Bardac solution 0.4%, contact 1 min, 5% in the sperm): 10.7 ± 7.6 | vitality (living spermatozoids) ([2]; Bardac solution 0.4%, contact 1 min, 10% in the sperm): 5 ± 6.4 | vitality (living spermatozoids) ([2]; Bardac solution 0.4%, contact 3 min, 5% in the sperm): 0.8 ± 1.2 | vitality (living spermatozoids) ([2]; Bardac solution 0.4%, contact 3 min, 10% in the sperm): 0.8 ± 1 | vitality (living spermatozoids) ([2]; Bardac solution 0.6%, contact 1 min, 5% in the sperm): 10.5 ± 9.7 | vitality (living spermatozoids) ([2]; Bardac solution 0.6%, contact 1 min, 10% in the sperm): 9.2 ± 12.9 | vitality (living spermatozoids) ([2]; Bardac solution 0.6%, contact 3 min, 5% in the sperm): 2.2 ± 4.5 | vitality (living spermatozoids) ([2]; Bardac solution 0.6%, contact 3 min, 10% in the sperm): 0.4 ± 0.9 | vitality (living spermatozoids) ([2]; Bardac solution 0.8%, contact 1 min, 5% in the sperm): 9.7 ± 10.2 | vitality (living spermatozoids) ([2]; Bardac solution 0.8%, contact 1 min, 10% in the sperm): 1.8 ± 2.5 | vitality (living spermatozoids) ([2]; Bardac solution 0.8%, contact 3 min, 5% in the sperm): 0 | vitality (living spermatozoids) ([2]; Bardac solution 0.8%, contact 3 min, 10% in the sperm): 0 | vitality (living spermatozoids) ([2]; Bardac solution 1%, contact 1 min, 5% in the sperm): 0 | vitality (living spermatozoids) ([2]; Bardac solution 1%, contact 1 min, 10% in the sperm): 0 | vitality (living spermatozoids) ([2]; Bardac solution 1%, contact 3 min, 5% in the sperm): 0 | vitality (living spermatozoids) ([2]; Bardac solution 1%, contact 3 min, 10% in the sperm): 0 | concentration of active substance inhibiting growth [3]: 0.0005% | dilution of the 0.1% solution inhibiting growth [3]: 0.5% | growth [3, 4]: + | growth [3, 5]: + | growth [3, 6]: + | growth [3, 7]: + | growth ([3]; 0.0125% vol/vol, inactivator A): + | growth ([3]; 0.0125% vol/vol, inactivator B): + | growth ([3]; 0.0125% vol/vol, inactivator C): + | growth [3, 8]: + | growth ([3]; 0.025% vol/vol, inactivator A): + | growth ([3]; 0.025% vol/vol, inactivator B): + | growth ([3]; 0.025% vol/vol, inactivator C): + | growth ([3]; 0.025% vol/vol, no inactivator): + | growth ([3]; 0.05% vol/vol, inactivator A): + | growth ([3]; 0.05% vol/vol, inactivator B): + | growth ([3]; 0.05% vol/vol, inactivator C): + | growth ([3]; 0.05% vol/vol, no inactivator): + | growth ([3]; 0.1% vol/vol, inactivator A): + | growth ([3]; 0.1% vol/vol, inactivator B): + | growth ([3]; 0.1% vol/vol, inactivator C): + | growth ([3]; 0.1% vol/vol, no inactivator): + | growth ([3]; 0.5% vol/vol, inactivator A): + | growth ([3]; 0.5% vol/vol, inactivator B): + | growth ([3]; 0.5% vol/vol, inactivator C): + | growth ([3]; 0.5% vol/vol, no inactivator): − | growth ([3]; 1.0% vol/vol, inactivator A): + | growth ([3]; 1.0% vol/vol, inactivator B): + | growth ([3]; 1.0% vol/vol, inactivator C): + | growth ([3]; 1.0% vol/vol, no inactivator): −

[H]/N=C(\N/C(=N/[H])NCCCCCCNC(=N)NC(=N)Nc1ccc(Cl)cc1)Nc1ccc(Cl)cc1 [Chlorhexidine, chlorohexidine digluconate, reference compound]
growth ([1]; 0.05% vol/vol, 1 min): + | growth ([1]; 0.05% vol/vol, 3 min): + | growth ([1]; 0.05% vol/vol, 5 min): + | growth ([1]; 0.05% vol/vol, 15 min): + | growth ([1]; 0.05% vol/vol, 30 min): + | growth ([1]; 0.05% vol/vol, 60 min): + | growth ([1]; 0.1% vol/vol, 1 min): + | growth ([1]; 0.1% vol/vol, 3 min): + | growth ([1]; 0.1% vol/vol, 5 min): + | growth ([1]; 0.1% vol/vol, 15 min): + | growth ([1]; 0.1% vol/vol, 30 min): + | growth ([1]; 0.1% vol/vol, 60 min): + | growth ([1]; 0.5% vol/vol, 1 min): + | growth ([1]; 0.5% vol/vol, 3 min): + | growth ([1]; 0.5% vol/vol, 5 min): + | growth ([1]; 0.5% vol/vol, 15 min): + | growth ([1]; 0.5% vol/vol, 30 min): + | growth ([1]; 0.5% vol/vol, 60 min): + | growth ([1]; 1% vol/vol, 1 min): + | growth ([1]; 1% vol/vol, 3 min): + | growth ([1]; 1% vol/vol, 5 min): + | growth ([1]; 1% vol/vol, 15 min): + | growth ([1]; 1% vol/vol, 30 min): + | growth ([1]; 1% vol/vol, 60 min): + | growth ([1]; 5% vol/vol, 1 min): + | growth ([1]; 5% vol/vol, 3 min): + | growth ([1]; 5% vol/vol, 5 min): + | growth ([1]; 5% vol/vol, 15 min): + | growth ([1]; 5% vol/vol, 30 min): − | growth ([1]; 5% vol/vol, 60 min): − | growth ([1]; 10% vol/vol, 1 min): + | growth ([1]; 10% vol/vol, 3 min): + | growth ([1]; 10% vol/vol, 5 min): + | growth ([1]; 10% vol/vol, 15 min): − | growth ([1]; 10% vol/vol, 30 min): − | growth ([1]; 10% vol/vol, 60 min): − | growth ([1]; 25% vol/vol, 1 min): + | growth ([1]; 25% vol/vol, 3 min): + | growth ([1]; 25% vol/vol, 5 min): + | growth ([1]; 25% vol/vol, 15 min): − | growth ([1]; 25% vol/vol, 30 min): − | growth ([1]; 25% vol/vol, 60 min): − | vitality (living spermatozoids) ([2]; Chlorohexidine digluconate solution 0.5%, contact 1 min, 5% in the sperm): 77 ± 10.8 | vitality (living spermatozoids) ([2]; Chlorohexidine digluconate solution 0.5%, contact 1 min, 10% in the sperm): 77.2 ± 5.6 | vitality (living spermatozoids) ([2]; Chlorohexidine digluconate solution 0.5%, contact 3 min, 5% in the sperm): 78 ± 5.7 | vitality (living spermatozoids) ([2]; Chlorohexidine digluconate solution 0.5%, contact 3 min, 10% in the sperm): 75.5 ± 4.8 | concentration of active substance inhibiting growth [3]: 0.0005% | dilution of the 0.1% solution inhibiting growth [3]: 0.5% | growth [3, 4]: + | growth [3, 5]: + | growth [3, 6]: + | growth [3, 7]: + | growth ([3]; 0.0125% vol/vol, inactivator A): + | growth ([3]; 0.0125% vol/vol, inactivator B): + | growth ([3]; 0.0125% vol/vol, inactivator C): + | growth [3, 8]: + | growth ([3]; 0.025% vol/vol, inactivator A): + | growth ([3]; 0.025% vol/vol, inactivator B): + | growth ([3]; 0.025% vol/vol, inactivator C): + | growth ([3]; 0.025% vol/vol, no inactivator): + | growth ([3]; 0.05% vol/vol, inactivator A): + | growth ([3]; 0.05% vol/vol, inactivator B): + | growth ([3]; 0.05% vol/vol, inactivator C): + | growth ([3]; 0.05% vol/vol, no inactivator): + | growth ([3]; 0.1% vol/vol, inactivator A): + | growth ([3]; 0.1% vol/vol, inactivator B): + | growth ([3]; 0.1% vol/vol, inactivator C): + | growth ([3]; 0.1% vol/vol, no inactivator): + | growth ([3]; 0.5% vol/vol, inactivator A): + | growth ([3]; 0.5% vol/vol, inactivator B): + | growth ([3]; 0.5% vol/vol, inactivator C): + | growth ([3]; 0.5% vol/vol, no inactivator): − | growth ([3]; 1.0% vol/vol, inactivator A): + | growth ([3]; 1.0% vol/vol, inactivator B): + | growth ([3]; 1.0% vol/vol, inactivator C): + | growth ([3]; 1.0% vol/vol, no inactivator): −
